Experimental data published in ChEMBL document CHEMBL4483862, “Open-source discovery of chemical leads for next-generation chemoprotective antimalarials” (2018).

System: Plasmodium berghei
Assay: Luciferase/luciferin-expressing antifolate-resistant parasites were used to infect a culture of HepG2 cells that were pre-incubated with compounds. Infected hepatocytes emit light due to the luciferase reaction. Assay results are presented as the percent inhibition of light emission compared to control. […]
Assay type: functional
Details: sporozoite; for IC90: read-out: LUCIFERASE INFECTION ASSAY - IC90
[1] = read-out: LUCIFERASE INFECTION ASSAY - IC50

| Structure (SMILES) | IC90 | also measured |
| --- | --- | --- |
| C/C(=N\NC(=S)Nc1cccc(C(F)(F)F)c1)c1cc(Cl)cc(Cl)c1O | > 7.82 µM | IC50 (PBLUC_HILL_SLOPE 20.9, PBLUC_R_SQUARED 0.295, read-out: LUCIFERASE INFECTION ASSAY - IC50): 7.78 µM |
| COc1ccc(-c2ccc(/C=N/Nc3ccc(F)cc3)s2)cc1 | 5.44 µM | IC50 (HEPG2TOX_HILL_SLOPE 1.1, HEPG2TOX_R_SQUARED 0.99, PBLUC_HILL_SLOPE 2.83, PBLUC_R_SQUARED 0.421, read-out: LUCIFERASE INFECTION ASSAY - IC50): 2.5 µM |
| NC(=O)C1CCN(c2nc(-c3ccc(Cl)cc3)nc3sc4c(c23)CCC4)CC1 | 3.79 µM | IC50 (FFLUC_HILL_SLOPE 3.15, FFLUC_R_SQUARED 0.774, HEPG2TOX_HILL_SLOPE 6.41, HEPG2TOX_R_SQUARED 0.32, PBLUC_HILL_SLOPE 20.1, PBLUC_R_SQUARED 0.486, read-out: LUCIFERASE INFECTION ASSAY - IC50): 3.4 µM |
| O=C(Nc1nc2ccccn2c1C(=O)NC1CCCCC1)c1ccc(F)c(F)c1 | > 8.28 µM | IC50 (PBLUC_HILL_SLOPE 13.4, PBLUC_R_SQUARED 0.0564, read-out: LUCIFERASE INFECTION ASSAY - IC50): 7.37 µM |
| COc1cccc(OC)c1C(=O)Nc1cc2c(c([N+](=O)[O-])c1C)C(C)(C)CC2(C)C | 6.98 µM | IC50 (FFLUC_HILL_SLOPE 10.9, FFLUC_R_SQUARED 0.163, HEPG2TOX_HILL_SLOPE 1.05, HEPG2TOX_R_SQUARED 0.731, PBLUC_HILL_SLOPE 1.82, PBLUC_R_SQUARED 0.597, read-out: LUCIFERASE INFECTION ASSAY - IC50): 2.09 µM |
| O=C(CCC(=O)c1ccc2c(c1)OCCO2)OCn1nnc2ccccc2c1=O | > 10 µM | IC50 [1]: > 10 µM |
| Cc1[nH]c(=O)[nH]c(=O)c1C(=O)/C=C/c1cn(-c2ccccc2)nc1-c1cc2ccccc2o1 | > 10 µM | IC50 [1]: > 10 µM |
| CN1N=C2c3ccccc3CCC2C1c1ccc(C(F)(F)F)cc1 (configuration not stated) | 1.66 µM | IC50 (PBLUC_HILL_SLOPE 1.95, PBLUC_R_SQUARED 0.843, read-out: LUCIFERASE INFECTION ASSAY - IC50): 0.537 µM |
| Cc1ccc(-n2ncc(C(=O)Nc3ccncc3)c2C2CC2)cc1Cl | 7.69 µM | IC50 (HEPG2TOX_HILL_SLOPE 0.617, HEPG2TOX_R_SQUARED 0.925, PBLUC_HILL_SLOPE 1.2, PBLUC_R_SQUARED 0.513, read-out: LUCIFERASE INFECTION ASSAY - IC50): 1.23 µM |
| C/N=c1\scc(-c2ccc(OC(F)F)cc2)n1/N=C/c1ccccc1[N+](=O)[O-] | > 10 µM | IC50 [1]: > 10 µM |
| CCOC(=O)C1=C(C)NC(C)=C(C(=O)OCC)C1c1ccc(Cl)cc1Cl | > 8.29 µM | IC50 (PBLUC_HILL_SLOPE 1.65, PBLUC_R_SQUARED 0.211, read-out: LUCIFERASE INFECTION ASSAY - IC50): > 8.29 µM |
| CC(C)CC(=O)NC(=S)Nc1ccc(S(=O)(=O)N(C)Cc2ccccc2)cc1 | 4.58 µM | IC50 (HEPG2TOX_HILL_SLOPE 1.27, HEPG2TOX_R_SQUARED 0.987, PBLUC_HILL_SLOPE 1.32, PBLUC_R_SQUARED 0.74, read-out: LUCIFERASE INFECTION ASSAY - IC50): 0.868 µM |
| Cn1c(-c2cccc(F)c2)nc2cnc(-c3cccc(Cl)c3)cc21 | > 10 µM | IC50 (HEPG2TOX_HILL_SLOPE 19.5, HEPG2TOX_R_SQUARED 0.312, read-out: LUCIFERASE INFECTION ASSAY - IC50): > 10 µM |
| Fc1ccc(-c2cnc3cnc(-c4ccccc4Cl)cn23)cc1Cl | > 9.21 µM | IC50 (PBLUC_HILL_SLOPE 3.59, PBLUC_R_SQUARED 0.419, read-out: LUCIFERASE INFECTION ASSAY - IC50): 8.08 µM |
| FC(F)(F)c1cc(N/N=C2/CCSc3sccc32)cc(C(F)(F)F)c1 | > 8.33 µM | IC50 (PBLUC_HILL_SLOPE 3.14, PBLUC_R_SQUARED 0.463, read-out: LUCIFERASE INFECTION ASSAY - IC50): 4.15 µM |
| Clc1cc(Cl)cc(-c2nnc(Sc3nc(-c4cccs4)ns3)[nH]2)c1 | > 8 µM | IC50 [1]: > 8 µM |
| Cc1ccc(C)c(S(=O)(=O)Oc2ccccc2C(=O)OCC(=O)c2c(C)[nH]c3ccccc23)c1 | > 10 µM | IC50 (HEPG2TOX_HILL_SLOPE 0.276, HEPG2TOX_R_SQUARED 0.379, PBLUC_HILL_SLOPE 12.5, PBLUC_R_SQUARED 0.167, read-out: LUCIFERASE INFECTION ASSAY - IC50): > 10 µM |
| CCCCNC(=O)c1c(NC(=O)c2ccc(OC)cc2)nc2c(C)cccn12 | > 8.67 µM | IC50 [1]: > 8.67 µM |

| Structure (SMILES) | IC90 | also measured |
| --- | --- | --- |
| CC1=NC(C)=C(C#N)C(c2cc(Br)ccc2OC(F)F)C1C#N (configuration not stated) | 4.24 µM | IC50 (HEPG2TOX_HILL_SLOPE 2.06, HEPG2TOX_R_SQUARED 0.906, PBLUC_HILL_SLOPE 11.5, PBLUC_R_SQUARED 0.189, read-out: LUCIFERASE INFECTION ASSAY - IC50): 3.51 µM |
| NC(=O)c1ccsc1NC(=O)Cc1ccc(-c2ccccc2)cc1 | 3.7 µM | IC50 (PBLUC_HILL_SLOPE 3.68, PBLUC_R_SQUARED 0.581, read-out: LUCIFERASE INFECTION ASSAY - IC50): 2.04 µM |
| CCn1c2ccccc2c2cc(NC(C)C(=O)N3CCNC3=O)ccc21 (configuration not stated) | 4.48 µM | IC50 (PBLUC_HILL_SLOPE 2.83, PBLUC_R_SQUARED 0.574, read-out: LUCIFERASE INFECTION ASSAY - IC50): 2.06 µM |
| CCn1c(C(=O)OC)c(NC(=O)C2CCOC2)c2cc(NCC(C)c3ccccc3)cnc21 (configuration not stated) | > 7.32 µM | IC50 (PBLUC_HILL_SLOPE 1.36, PBLUC_R_SQUARED 0.443, read-out: LUCIFERASE INFECTION ASSAY - IC50): 5.53 µM |
| COc1ccc2c(c1)CCCN2C(=O)c1occc1C | 1.23 µM | IC50 (HEPG2TOX_HILL_SLOPE 0.966, HEPG2TOX_R_SQUARED 0.937, PBLUC_HILL_SLOPE 15.5, PBLUC_R_SQUARED 0.354, read-out: LUCIFERASE INFECTION ASSAY - IC50): 1.07 µM |
| CCc1cccc(CC)c1N(C(C)=O)c1nc(/C=C/C(=O)c2cc3ccccc3o2)cs1 | 6.49 µM | IC50 (FFLUC_HILL_SLOPE 3.93, FFLUC_R_SQUARED 0.771, PBLUC_HILL_SLOPE 5.3, PBLUC_R_SQUARED 0.865, read-out: LUCIFERASE INFECTION ASSAY - IC50): 4.29 µM |
| Cc1ccc(C(C)C)c(OCCCNCCc2ccccc2)c1 | 9.99 µM | IC50 (HEPG2TOX_HILL_SLOPE 12.1, HEPG2TOX_R_SQUARED 0.387, PBLUC_HILL_SLOPE 24.3, PBLUC_R_SQUARED 0.56, read-out: LUCIFERASE INFECTION ASSAY - IC50): 9.13 µM |
| NS(=O)(=O)c1ccc(CCNc2nc(-c3ccc(Cl)cc3)nc3sc4c(c23)CCC4)cc1 | > 10 µM | IC50 (FFLUC_HILL_SLOPE 5.22, FFLUC_R_SQUARED 0.196, PBLUC_HILL_SLOPE 2.11, PBLUC_R_SQUARED 0.629, read-out: LUCIFERASE INFECTION ASSAY - IC50): 7.12 µM |
| O=C(Nc1nnc(C(F)(F)F)s1)c1ccc(F)c(Cl)c1 | 4.03 µM | IC50 (HEPG2TOX_HILL_SLOPE 1.54, HEPG2TOX_R_SQUARED 0.943, PBLUC_HILL_SLOPE 14.8, PBLUC_R_SQUARED 0.531, read-out: LUCIFERASE INFECTION ASSAY - IC50): 3.48 µM |
| O=c1c2c(-c3ccccc3)csc2nc2n1CC/C2=C\c1cccc(C(F)(F)F)c1 | > 10 µM | IC50 (FFLUC_HILL_SLOPE 50.3, FFLUC_R_SQUARED 0.583, read-out: LUCIFERASE INFECTION ASSAY - IC50): > 10 µM |
| COc1cc(C(=O)NNC(=O)c2nn(-c3ccccc3)cc2O)cc(OC)c1OC | > 10 µM | IC50 (HEPG2TOX_HILL_SLOPE 4.57, HEPG2TOX_R_SQUARED 0.844, PBLUC_HILL_SLOPE 7.94, PBLUC_R_SQUARED 0.6, read-out: LUCIFERASE INFECTION ASSAY - IC50): 8.48 µM |
| c1ccc2c(c1)oc1c(-c3ccc4nccn4c3)cccc12 | > 11.6 µM | IC50 (HEPG2TOX_HILL_SLOPE 5.27, HEPG2TOX_R_SQUARED 0.667, PBLUC_HILL_SLOPE 2.08, PBLUC_R_SQUARED 0.703, read-out: LUCIFERASE INFECTION ASSAY - IC50): 4.57 µM |
| COC(=O)c1occc1/C=C/C(=O)C12CC3CC(CC(C3)C1)C2 | 7.04 µM | IC50 (HEPG2TOX_HILL_SLOPE 9.64, HEPG2TOX_R_SQUARED 0.941, PBLUC_HILL_SLOPE 4.67, PBLUC_R_SQUARED 0.564, read-out: LUCIFERASE INFECTION ASSAY - IC50): 4.4 µM |
| O=C(OCc1csc(-c2ccccc2)n1)c1cc([N+](=O)[O-])ccc1N1CCC(Cc2ccccc2)CC1 | > 10 µM | IC50 (HEPG2TOX_HILL_SLOPE 3.49, HEPG2TOX_R_SQUARED 0.926, PBLUC_HILL_SLOPE 12.2, PBLUC_R_SQUARED 0.465, read-out: LUCIFERASE INFECTION ASSAY - IC50): 8.99 µM |
| CC1N(C)c2ccc(/C=C/c3sc4ccccc4[n+]3C)cc2C1(C)C (configuration not stated) | 4.5 µM | IC50 (HEPG2TOX_HILL_SLOPE 3.18, HEPG2TOX_R_SQUARED 0.945, PBLUC_HILL_SLOPE 1.61, PBLUC_R_SQUARED 0.672, read-out: LUCIFERASE INFECTION ASSAY - IC50): 1.15 µM |
| O=C(N/N=C/c1ccc(N2CCOCC2)s1)c1ccc(COc2cccc3cccnc23)cc1 | > 10 µM | IC50 (HEPG2TOX_HILL_SLOPE 12.5, HEPG2TOX_R_SQUARED 0.767, PBLUC_HILL_SLOPE 2.46, PBLUC_R_SQUARED 0.528, read-out: LUCIFERASE INFECTION ASSAY - IC50): 5.64 µM |
| CCOC(=O)c1c(S(N)(=O)=O)c(C)n(-c2ccccc2)c1C | > 10.2 µM | IC50 [1]: > 10.2 µM |
| COc1ccc(OC)c(/C=C/C(=O)N2C(=O)c3cccc(N)c3C2=O)c1 | > 10 µM | IC50 (HEPG2TOX_HILL_SLOPE 4.32, HEPG2TOX_R_SQUARED 0.934, PBLUC_HILL_SLOPE 15.3, PBLUC_R_SQUARED 0.377, read-out: LUCIFERASE INFECTION ASSAY - IC50): 9.46 µM |
